Patent US20260317324A1, “BIFUNCTIONAL COMPOUNDS FOR DEGRADING BRAF VIA UBIQUITIN PROTEOSOME PATHWAY” (Nurix Therapeutics, Inc., priority 2023, published 2026)

What was measured:
Type in all cases: cell-based
BRAF V600E = molecular target: T1, BRAF V600E (Homo sapiens, UniProt P15056, V600E); test: BRAF HiBiT degradation assay, C-terminal HiBiT-tagged BRAF V600E A375 cells (clone 1F10), Nano-Glo HiBiT Lytic assay; conditions: A375 (BRAF V600E); for DC50: DC50 at 50%: fitted conc. at Y=50; for Dmax: A-375, percentage protein degraded at maximal compound effect relative to DMSO
T1 construct: endogenous C-terminal HiBiT fusion tag on BRAF V600E allele; endogenous in cells; host or cells: A375 clone 1F10 (CRISPR-Cas9 knock-in of the HiBiT tag; parental A375 from ATCC)
Procedure, shortened: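 Luminescence read-out: Nano-Glo HiBiT lytic reagent with LgBiT, 10 min at room temperature. Signal normalised to DMSO-treated tagged cells, with wildtype A375 as background. Cells are endogenously tagged BRAF V600E A375 clone 1F10. Compounds were tested from 1 μM to 0.01 nM; Dmax is observed % degraded at maximal effect.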

BRAF G466V = molecular target: T2, BRAF G466V (Homo sapiens, UniProt P15056, G466V); test: BRAF HiBiT degradation assay, C-terminal HiBiT-tagged BRAF G466V overexpressed in HCT-116 BRAF−/− cells (clone 8), Nano-Glo HiBiT Lytic assay; conditions: BRAF G466V; for DC50: DC50 at 50%: fitted conc. at Y=50; for Dmax: HCT-116, percentage protein degraded at maximal compound effect relative to DMSO
T2 construct: Horizon Discovery (HCT-116 BRAF−/− cells); host or cells: HCT-116 BRAF−/− cells, clone 8, lentiviral transduction
Procedure, shortened: (§1)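 Cells 3,000/well, 24 h at 37 °C; cpds 1 μM–0.01 nM, 11-pt half-log, duplicate, 0.2% DMSO. Readout: HiBiT lytic luminescence, 10 min at RT. Normalized to DMSO-treated tagged cells, with DMSO-treated wild-type HCT-116 as background. DC50 = fitted concentration at Y=50; Obs. Dmax = % degraded at maximal effect.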

BRAF D594G = molecular target: T3, BRAF D594G (Homo sapiens, UniProt P15056, D594G); test: BRAF HiBiT degradation assay, C-terminal HiBiT-tagged BRAF D594G overexpressed in HCT-116 BRAF−/− cells (clone 63), Nano-Glo HiBiT Lytic assay; conditions: BRAF D594G; for DC50: DC50 at 50%: fitted conc. at Y=50; for Dmax: HCT-116, percentage protein degraded at maximal compound effect relative to DMSO
T3 construct: Horizon Discovery (HCT-116 BRAF−/− cells); host or cells: HCT-116 BRAF−/− cells, clone 63, lentiviral transduction
Procedure, shortened: as §1

BRAF G469A = molecular target: T4, BRAF G469A (Homo sapiens, UniProt P15056, G469A); test: BRAF HiBiT degradation assay, C-terminal HiBiT-tagged BRAF G469A overexpressed in HCT-116 BRAF−/− cells (clone 34), Nano-Glo HiBiT Lytic assay; conditions: Class 2, BRAF G469A; for DC50: DC50 at 50%: fitted conc. at Y=50; for Dmax: HCT-116, percentage protein degraded at maximal compound effect relative to DMSO
T4 construct: Horizon Discovery (HCT-116 BRAF−/− cells); host or cells: HCT-116 BRAF−/− cells, clone 34, lentiviral transduction
Procedure, shortened: as §1

T4 sequence (P15056 whole entry G469A): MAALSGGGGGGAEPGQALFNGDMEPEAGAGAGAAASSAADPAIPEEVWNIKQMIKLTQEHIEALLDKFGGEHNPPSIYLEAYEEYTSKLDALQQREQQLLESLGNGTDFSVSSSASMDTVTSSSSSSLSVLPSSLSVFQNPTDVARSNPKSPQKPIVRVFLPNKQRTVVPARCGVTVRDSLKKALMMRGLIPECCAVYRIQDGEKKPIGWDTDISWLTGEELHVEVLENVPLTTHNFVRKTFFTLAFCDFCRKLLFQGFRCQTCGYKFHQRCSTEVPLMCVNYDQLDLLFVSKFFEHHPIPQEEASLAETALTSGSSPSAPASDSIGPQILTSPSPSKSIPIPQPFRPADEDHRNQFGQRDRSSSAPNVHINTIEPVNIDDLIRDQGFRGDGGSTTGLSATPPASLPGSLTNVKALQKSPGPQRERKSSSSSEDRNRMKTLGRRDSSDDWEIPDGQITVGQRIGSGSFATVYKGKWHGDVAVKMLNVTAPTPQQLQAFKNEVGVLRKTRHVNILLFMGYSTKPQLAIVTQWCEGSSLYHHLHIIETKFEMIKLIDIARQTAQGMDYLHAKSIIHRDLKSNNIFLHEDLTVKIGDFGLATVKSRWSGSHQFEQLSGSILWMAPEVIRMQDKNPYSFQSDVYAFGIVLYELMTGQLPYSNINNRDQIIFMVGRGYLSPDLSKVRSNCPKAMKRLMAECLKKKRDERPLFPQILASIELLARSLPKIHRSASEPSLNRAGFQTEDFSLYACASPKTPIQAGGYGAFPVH
T3 sequence (P15056 whole entry D594G): as the sequence (P15056 whole entry G469A) above, with A469G, D594G counted along it
T1 sequence (P15056 whole entry V600E, the tested form may be a part): as the sequence (P15056 whole entry G469A) above, with A469G, V600E counted along it
T2 sequence (P15056 whole entry G466V): as the sequence (P15056 whole entry G469A) above, with G466V, A469G counted along it

Compound	DC50 (BRAF V600E) [nM]	Dmax (BRAF V600E) [%]	DC50 (BRAF G466V) [nM]	Dmax (BRAF G466V) [%]	DC50 (BRAF D594G) [nM]	Dmax (BRAF D594G) [%]	DC50 (BRAF G469A) [nM]	Dmax (BRAF G469A) [%]
CCN(C)S(=O)(=O)Nc1cccc(-c2nc(C)sc2-c2ccnc(Nc3ccc(N4CCN(C(=O)C5CCN(c6ccc(C7CCC(=O)NC7=O)cn6)CC5)CC4)cn3)n2)c1F (racemic) [Compound 40, Rac-(3S)-3-[6-(4-{4-[6-({4-[4-(3-{[ethyl(methyl)sulfamoyl]amino}-2-fluorophenyl)-2-methyl-1,3-thiazol-5-yl]pyrimidin-2-yl}amino)pyridin-3-yl]piperazine-1-carbonyl}piperidin-1-yl)pyridin-3-yl]piperidine-2,6-dione]	< 10	> 70	> 500	30 to 70	> 500	30 to 70	10 to 50	30 to 70
CCN(C)S(=O)(=O)Nc1cccc(-c2nc(C(C)(C)C)sc2-c2ccnc(Nc3ccc(N4CCN(C(=O)C5(C)CCN(c6ccc(C7CCC(=O)NC7=O)cn6)CC5)CC4)cn3)n2)c1F (racemic) [Compound 42, Rac-(3S)-3-[6-(4-{4-[6-({4-[2-tert-butyl-4-(3-{[ethyl(methyl)sulfamoyl]amino}-2-fluorophenyl)-1,3-thiazol-5-yl]pyrimidin-2-yl}amino)pyridin-3-yl]piperazine-1-carbonyl}-4-methylpiperidin-1-yl)pyridin-3-yl]piperidine-2,6-dione]	< 10	> 70	> 500	< 30	> 500	30 to 70	> 500	< 30

Other lines, results leading:

DC50 (BRAF V600E) [nM]	Dmax (BRAF V600E) [%]	DC50 (BRAF G466V) [nM]	Dmax (BRAF G466V) [%]	DC50 (BRAF D594G) [nM]	Dmax (BRAF D594G) [%]	DC50 (BRAF G469A) [nM]	Dmax (BRAF G469A) [%]	Compound
< 10	> 70	> 500	30 to 70	> 500	30 to 70	10 to 50	< 30	CCCS(=O)(=O)Nc1cccc(-c2nc(C(C)(C)C)sc2-c2ccnc(Nc3ccc(C4CCN(CC5CCN(c6ccc(C7CCC(=O)NC7=O)cn6)CC5)CC4)cc3)n2)c1F (racemic) [Compound 35, Rac-N-[3-(2-tert-butyl-5-{2-[(4-{1-[(1-{5-[(3R)-2,6-dioxopiperidin-3-yl]pyridin-2-yl}piperidin-4-yl)methyl]piperidin-4-yl}phenyl)amino]pyrimidin-4-yl}-1,3-thiazol-4-yl)-2-fluorophenyl]propane-1-sulfonamide]
< 10	> 70	> 500	< 30	> 500	30 to 70	10 to 50	30 to 70	CCN(C)S(=O)(=O)Nc1cccc(-c2nc(C(C)(C)C)sc2-c2ccnc(Nc3ccc(N4CCN(C(=O)C5CCN(c6ccc(C7CCC(=O)NC7=O)cc6)CC5)CC4)cn3)n2)c1F (racemic) [Compound 36, Rac-(3S)-3-[4-(4-{4-[6-({4-[2-tert-butyl-4-(3-{[ethyl(methyl)sulfamoyl]amino}-2-fluorophenyl)-1,3-thiazol-5-yl]pyrimidin-2-yl}amino)pyridin-3-yl]piperazine-1-carbonyl}piperidin-1-yl)phenyl]piperidine-2,6-dione]
< 10	> 70	> 500	< 30	> 500	30 to 70	10 to 50	< 30	CCCS(=O)(=O)Nc1cccc(-c2nc(C(C)(C)C)sc2-c2ccnc(Nc3ccc(N4CCN(C(=O)C5CCN(c6ccc(C7CCC(=O)NC7=O)cc6)CC5)CC4)cc3)n2)c1F (racemic) [Compound 38, Rac-N-(3-{2-tert-butyl-5-[2-({4-[4-(1-{4-[(3R)-2,6-dioxopiperidin-3-yl]phenyl}piperidine-4-carbonyl)piperazin-1-yl]phenyl}amino)pyrimidin-4-yl]-1,3-thiazol-4-yl}-2-fluorophenyl)propane-1-sulfonamide]
